{
  "source": "ChEMBL document CHEMBL3784995",
  "about": "“Inhibitors of HIV-1 maturation: Development of structure-activity relationship for C-28 amides based on C-3 benzoic acid-modified triterpenoids” (Bioorg Med Chem Lett, 2016)",
  "key": {"[1]": {"test": "Bioavailability in cannula implanted rat at 5 mg/kg administered through oral gavage after 24 hrs by LC-MS/MS analysis", "assay_type": "ADME, organism-based", "details": "in vivo"}, "[2]": {"test_system": "Human immunodeficiency virus 1", "test": "Antiviral activity against wild type HIV1 NL4-3 infected in human MT2 cells after 4 to 5 days by dual-luciferase reporter gene assay", "assay_type": "functional, organism-based", "details": "Human immunodeficiency virus 1, NL4-3, MT2"}, "[3]": {"test_system": "Human immunodeficiency virus 1", "test": "Antiviral activity against wild type HIV1 NL4-3 habouring Gag protein V370A mutant infected in human MT2 cells after 4 to 5 days by dual-luciferase reporter gene assay", "assay_type": "functional, organism-based", "details": "Human immunodeficiency virus 1, NL4-3, MT2"}, "[4]": {"test_system": "Human immunodeficiency virus 1", "test": "Antiviral activity against wild type HIV1 NL4-3 habouring Gag protein delta V370 infected in human MT2 cells after 4 to 5 days by dual-luciferase reporter gene assay", "assay_type": "functional, organism-based", "details": "Human immunodeficiency virus 1, NL4-3, MT2"}, "[5]": {"test_system": "Human immunodeficiency virus 1", "test": "Antiviral activity against wild type BVM-resistant HIV1 NL4-3 habouring Gag protein V370M mutant infected in human MT2 cells after 4 to 5 days by dual-luciferase reporter gene assay", "assay_type": "functional, organism-based", "details": "Human immunodeficiency virus 1, NL4-3, MT2"}, "[6]": {"test_system": "Human immunodeficiency virus 1", "test": "Antiviral activity against wild type BVM-resistant HIV1 NL4-3 habouring Gag protein T371A mutant infected in human MT2 cells after 4 to 5 days by dual-luciferase reporter gene assay", "assay_type": "functional, organism-based", "details": "Human immunodeficiency virus 1, NL4-3, MT2"}, "[7]": {"test_system": "Human immunodeficiency virus 1", "test": "Antiviral activity against wild type BVM-resistant HIV1 NL4-3 habouring Gag protein delta T371 infected in human MT2 cells after 4 to 5 days by dual-luciferase reporter gene assay", "assay_type": "functional, organism-based", "details": "Human immunodeficiency virus 1, NL4-3, MT2"}, "[8]": {"test": "Metabolic stability in human liver microsomes at 0.5 uM by LC-MS/MS analysis in presence of NADPH", "assay_type": "ADME"}, "[9]": {"test": "Metabolic stability in rat liver microsomes at 0.5 uM by LC-MS/MS analysis in presence of NADPH", "assay_type": "ADME"}, "[10]": {"test": "AUC (0 to 6 hrs) in cannula implanted rat at 5 mg/kg administered through oral gavage after 24 hrs by LC-MS/MS analysis", "assay_type": "ADME, organism-based", "set-up": "dose 5 mg/kg, time < 6 hr, route oral", "details": "in vivo"}, "[11]": {"test": "(§1) Total AUC in cannula implanted rat at 5 mg/kg administered through oral gavage after 24 hrs by LC-MS/MS analysis", "assay_type": "ADME, organism-based", "set-up": "dose 5 mg/kg, time AUCmax, route oral", "details": "in vivo"}, "[12]": {"test": "Cmax in cannula implanted rat at 5 mg/kg administered through oral gavage after 24 hrs by LC-MS/MS analysis", "assay_type": "ADME, organism-based", "set-up": "dose 5 mg/kg, route oral", "details": "in vivo"}, "[13]": {"test": "Plasma concentration in cannula implanted rat at 5 mg/kg administered through oral gavage after 24 hrs by LC-MS/MS analysis", "assay_type": "ADME, organism-based"}, "[14]": {"test": "Plasma clearance in cannula implanted rat at 1 mg/kg, iv by LC-MS/MS analysis", "assay_type": "ADME, organism-based"}, "[15]": {"test": "Cytotoxicity against human MT2 cells", "assay_type": "cell-based"}, "[16]": {"test": "in vivo", "details": "rat, iv, 1 mg/kg", "description": "Volume of distribution at steady state in cannula implanted rat at 1 mg/kg, iv by LC-MS/MS analysis"}, "[17]": {"test_system": "Human immunodeficiency virus 1", "test": "Antiviral activity against wild type HIV1 NL4-3 infected in human MT2 cells after 4 to 5 days by dual-luciferase reporter gene assay in presence of human serum albumin", "assay_type": "functional, organism-based", "details": "Human immunodeficiency virus 1, NL4-3, MT2"}, "[18]": {"test_system": "Rattus norvegicus", "test": "as §1", "assay_type": "ADME, organism-based", "set-up": "dose 5 mg/kg, time AUCmax, route oral", "details": "in vivo, 24 h"}},
  "data": [
    {"smiles": "C=C(C)[C@@H]1CC[C@]2(C(=O)NCCc3ccccn3)CC[C@]3(C)[C@H](CC[C@@H]4[C@@]5(C)CC=C(c6ccc(C(=O)O)cc6)C(C)(C)[C@@H]5CC[C@]43C)[C@@H]12", "values": [
      {"measurement": "bioavailability", "setting": "[1]", "result": 3, "unit": "%"},
      {"measurement": "EC50", "setting": "[2]", "result": 15, "unit": "nM"},
      {"measurement": "EC50", "setting": "[3]", "result": 19, "unit": "nM"},
      {"measurement": "EC50", "setting": "[4]", "result": 415, "unit": "nM"},
      {"measurement": "EC50", "setting": "[5]", "result": 61, "unit": "nM"},
      {"measurement": "EC50", "setting": "[6]", "result": 19, "unit": "nM"},
      {"measurement": "EC50", "setting": "[7]", "result": 38, "unit": "nM"},
      {"measurement": "half-life at 0.5 µM", "setting": "[8]", "result": 0.717, "unit": "h"},
      {"measurement": "half-life at 0.5 µM", "setting": "[9]", "result": "> 2", "unit": "h"},
      {"measurement": "AUC(0-t) at 6 h", "setting": "[10]", "result": 0.721, "unit": "µM·h"},
      {"measurement": "AUC at 24 h", "setting": "[11]", "result": 1.23, "unit": "µM·h"},
      {"measurement": "Cmax", "setting": "[12]", "result": 172, "unit": "nM"},
      {"measurement": "concentration at 24 h", "setting": "[13]", "result": 5, "unit": "nM"},
      {"measurement": "clearance", "setting": "[14]", "result": 3.2, "unit": "mL/min/kg"},
      {"measurement": "CC50", "setting": "[15]", "result": 8000, "unit": "nM"},
      {"measurement": "Vd", "setting": "[16]", "result": 1.1, "unit": "L/kg"}
    ]},
    {"smiles": "C=C(C)[C@@H]1CC[C@]2(C(=O)N(C)CCN(C)C)CC[C@]3(C)[C@H](CC[C@@H]4[C@@]5(C)CC=C(c6ccc(C(=O)O)cc6)C(C)(C)[C@@H]5CC[C@]43C)[C@@H]12", "values": [
      {"measurement": "bioavailability", "setting": "[1]", "result": 11, "unit": "%"},
      {"measurement": "EC50", "setting": "[2]", "result": 6, "unit": "nM"},
      {"measurement": "EC50", "setting": "[17]", "result": 17, "unit": "nM"},
      {"measurement": "EC50", "setting": "[3]", "result": 38, "unit": "nM"},
      {"measurement": "EC50", "setting": "[4]", "result": 25, "unit": "nM"},
      {"measurement": "half-life at 0.5 µM", "setting": "[8]", "result": "> 2", "unit": "h"},
      {"measurement": "half-life at 0.5 µM", "setting": "[9]", "result": 1.42, "unit": "h"},
      {"measurement": "AUC(0-t) at 6 h", "setting": "[10]", "result": 1.42, "unit": "µM·h"},
      {"measurement": "AUC at 24 h", "setting": "[11]", "result": 6.87, "unit": "µM·h"},
      {"measurement": "Cmax", "setting": "[12]", "result": 386, "unit": "nM"},
      {"measurement": "concentration at 24 h", "setting": "[13]", "result": 108, "unit": "nM"},
      {"measurement": "clearance", "setting": "[14]", "result": 2.2, "unit": "mL/min/kg"},
      {"measurement": "CC50", "setting": "[15]", "result": 3000, "unit": "nM"}
    ]},
    {"smiles": "C=C(C)[C@@H]1CC[C@]2(C(=O)NCCC(=O)O)CC[C@]3(C)[C@H](CC[C@@H]4[C@@]5(C)CC=C(c6ccc(C(=O)O)cc6)C(C)(C)[C@@H]5CC[C@]43C)[C@@H]12", "values": [
      {"measurement": "bioavailability", "setting": "[1]", "result": 71, "unit": "%"},
      {"measurement": "EC50", "setting": "[2]", "result": 37, "unit": "nM"},
      {"measurement": "EC50", "setting": "[17]", "result": 449, "unit": "nM"},
      {"measurement": "EC50", "setting": "[3]", "result": 427, "unit": "nM"},
      {"measurement": "EC50", "setting": "[4]", "result": "> 4000", "unit": "nM"},
      {"measurement": "half-life at 0.5 µM", "setting": "[8]", "result": 1.88, "unit": "h"},
      {"measurement": "half-life at 0.5 µM", "setting": "[9]", "result": "> 2", "unit": "h"},
      {"measurement": "AUC(0-t) at 6 h", "setting": "[10]", "result": 43.2, "unit": "µM·h"},
      {"measurement": "AUC at 24 h", "setting": "[11]", "result": 79.9, "unit": "µM·h"},
      {"measurement": "Cmax", "setting": "[12]", "result": 9470, "unit": "nM"},
      {"measurement": "concentration at 24 h", "setting": "[13]", "result": 137, "unit": "nM"},
      {"measurement": "clearance", "setting": "[14]", "result": 1.2, "unit": "mL/min/kg"},
      {"measurement": "CC50", "setting": "[15]", "result": 36000, "unit": "nM"},
      {"measurement": "Vd", "setting": "[16]", "result": 0.02, "unit": "L/kg"}
    ]},
    {"smiles": "C=C(C)[C@@H]1CC[C@]2(C(=O)NCCN(C)C)CC[C@]3(C)[C@H](CC[C@@H]4[C@@]5(C)CC=C(c6ccc(C(=O)O)cc6)C(C)(C)[C@@H]5CC[C@]43C)[C@@H]12", "values": [
      {"measurement": "bioavailability", "setting": "[1]", "result": 17, "unit": "%"},
      {"measurement": "EC50", "setting": "[4]", "result": 31, "unit": "nM"},
      {"measurement": "EC50", "setting": "[5]", "result": 10, "unit": "nM"},
      {"measurement": "EC50", "setting": "[6]", "result": 3, "unit": "nM"},
      {"measurement": "EC50", "setting": "[7]", "result": 3, "unit": "nM"},
      {"measurement": "half-life at 0.5 µM", "setting": "[8]", "result": "> 2", "unit": "h"},
      {"measurement": "half-life at 0.5 µM", "setting": "[9]", "result": "> 2", "unit": "h"},
      {"measurement": "AUC(0-t) at 6 h", "setting": "[10]", "result": 1.62, "unit": "µM·h"},
      {"measurement": "AUC", "setting": "[18]", "result": 3.814, "unit": "µM·h"},
      {"measurement": "Cmax", "setting": "[12]", "result": 396, "unit": "nM"},
      {"measurement": "clearance", "setting": "[14]", "result": 6.1, "unit": "mL/min/kg"},
      {"measurement": "CC50", "setting": "[15]", "result": 3000, "unit": "nM"},
      {"measurement": "Vd", "setting": "[16]", "result": 2.3, "unit": "L/kg"}
    ]}
  ]
}
